Experimental data: the supplement of paper PMC8671470
± gives the standard deviation of the averaged measurements.

How the values were obtained:
Settings in all cases: 72 h
[1] = test system: MV4-11
In short: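 Seeded in RPMI 1640 at densities within the linear growth range, fifteen myeloid leukaemia cell lines were dispensed into 384-well plates with acoustically pre-printed compounds spanning five tenfold doses from 1 to 10,000 nM, in duplicate. The plates were kept for 72 h at 37 °C in 5% CO2 before luminescent ATP viability was measured and normalised to vehicle and to a positive control at 10 µM. Curves were fitted with a four-parameter log-logistic model. The IC50 was taken from those curves.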

[2] = test system: HL-60; assay: area under dose-response curve (viability, 1 nM-10 uM) (fraction (0-1)); higher = more sensitive
In short: (§1)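 A rescreen of the full library used HL-60 cells in RPMI 1640 with 10% FBS on 384-well plates, run in duplicate at five tenfold concentrations (1–10,000 nM). Each screen included DMSO or 100 nM of one of three metabolic inhibitors and ran 72 h at 37 °C, 5% CO2. CellTiter-Glo viability was scaled between DMSO and 10 μM proteasome-inhibitor wells. Any area under the curve comes from four-parameter log-logistic fits with drc and PharmacoGx.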

[3] = test system: HL-60; assay: cell viability (% survival relative to DMSO control); higher = less cytotoxic
In short: as §1

[4] = test system: THP-1; assay: cell viability (% survival relative to DMSO control, bortezomib = 0%); higher = less cytotoxic
In short: (§2)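 Fifteen myeloid leukaemia cell lines (10 AML, 5 CML) were seeded at a density titrated to the linear growth range into 384-well plates pre-printed with compounds at 1, 10, 100, 1000 or 10000 nM in duplicate. Plates were incubated for 72 h at 37 °C with 5% CO2. Viability was then read by CellTiter-Glo luminescence. Each value is percent survival averaged over the duplicates, with vehicle set to 100% and a 10 µM positive control to 0%.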

[5] = test system: MV4-11; assay: as above
In short: as §2

[6] = test system: BV-173; assay: as above
In short: as §2

[7] = test system: MOLM-13; assay: as above
In short: as §2

[8] = test system: SHI-1; assay: as above
In short: as §2

[9] = test system: LAMA-84; assay: as above
In short: as §2

[10] = test system: HEL; assay: as above
In short: as §2

[11] = test system: KU-812; assay: as above
In short: as §2

[12] = test system: KG-1; assay: as above
In short: as §2

[13] = test system: NOMO-1; assay: as above
In short: as §2

[14] = test system: KCL-22; assay: as above
In short: as §2

[15] = test system: ML-2; assay: as above
In short: as §2

[16] = test system: K-562; assay: as above
In short: as §2

[17] = test system: HL-60; assay: as above
In short: as §2

[18] = test system: Mono-Mac-6; assay: as above
In short: as §2

c1ccc2c(c1)SCc1c-2[nH]c2ccccc12
Settings	IC50 (cell viability) [nM]
[1]	1060

Settings	area under dose-response curve, co-treatment: AZD3965 100 nM	area under dose-response curve, co-treatment: DMSO vehicle	area under dose-response curve, co-treatment: GSK2194069 100 nM	area under dose-response curve, co-treatment: pictilisib 100 nM	cell viability, 1 nM [%]	cell viability, 10 nM [%]	cell viability, 100 nM [%]	cell viability, 1000 nM [%]	cell viability, 10000 nM [%]
[2]	< 0.0301	< 0.0301	< 0.0301	< 0.0301	–	–	–	–	–
[4]	–	–	–	–	105	100	106	93.4	33.6
[5]	–	–	–	–	101	101	111	52.8	-0.521
[6]	–	–	–	–	98.6	113	114	27.6	-0.875
[7]	–	–	–	–	99.2	87	100	78.6	23.9
[8]	–	–	–	–	101	96	89.1	84.7	3.75
[9]	–	–	–	–	106	103	111	109	16.6
[10]	–	–	–	–	106	102	94.6	94.9	7
[11]	–	–	–	–	99.6	110	105	95.3	0.3
[12]	–	–	–	–	104	102	125	34.7	-0.763
[13]	–	–	–	–	97	107	108	98.2	0.816
[14]	–	–	–	–	96.1	93.2	100	80.9	1.24
[15]	–	–	–	–	106	110	89.8	69	-1.13
[16]	–	–	–	–	100	100	103	108	12
[17]	–	–	–	–	100	95.7	102	83	23.4
[18]	–	–	–	–	97.8	105	103	95.3	-0.27

cell viability [%], [3]
Settings	0.001 µM	0.01 µM	0.1 µM	1 µM	10 µM
co-treatment: AZD3965 100 nM	80.9 ± 24	94.8 ± 9.9	107 ± 3.7	117 ± 11	94.6 ± 18
co-treatment: DMSO vehicle	102.4 ± 0.67	101.01 ± 0.034	98.13 ± 0.25	101 ± 2.6	96.9 ± 1.2
co-treatment: GSK2194069 100 nM	96.7 ± 2.4	100.7 ± 0.49	103 ± 1.6	96.4 ± 3.2	93.2 ± 5.7
co-treatment: pictilisib 100 nM	90.3 ± 19	86.7 ± 13	104 ± 3.1	105 ± 9	98.9 ± 2
